These results are taken from patent US20210053957A1, “HERBICIDAL COMPOUNDS” (SYNGENTA PARTICIPATIONS AG, priority 2018, published 2021).

Assay in all cases: Post-emergence efficacy, glasshouse spray test
Holding throughout (type): in vivo

The subject of assay [1] is Amaranthus palmeri (AMAPA). The note with it: Amaranthus palmeri, post-emergence, 312 h; Application Rate 500 g/Ha; evaluated after 13 days; read-out: Control of weed species after post-emergence application, AMAPA (100=total damage to plant; 0=no damage to plant). The gist of the method:
(§1)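 Each value is a visual injury score (0 none, 100 total) read 13 days post-application. Plants were 14 days old at spraying and kept at 24/16° C, 14 h light.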

For assay [2], the system named is Chenopodium album (CHEAL). As to conditions: Chenopodium album, post-emergence, 312 h; Application Rate 500 g/Ha; evaluated after 13 days; read-out: Control of weed species after post-emergence application, CHEAL (100=total damage to plant; 0=no damage to plant). Put shortly: as §1
Assay [3] concerns Digitaria sanguinalis (DIGSA). The note with it: Digitaria sanguinalis, post-emergence, 312 h; Application Rate 500 g/Ha; evaluated after 13 days; read-out: Control of weed species after post-emergence application, DIGSA (100=total damage to plant; 0=no damage to plant). The gist of the method: as §1
Assay [4] has as its system Echinochloa crus-galli (ECHCG). As to conditions: Echinochloa crus-galli, post-emergence, 312 h; Application Rate 500 g/Ha; evaluated after 13 days; read-out: Control of weed species after post-emergence application, ECHCG (100=total damage to plant; 0=no damage to plant). Put shortly: as §1
A further assay relates to Eleusine indica (ELEIN). The note with it: Eleusine indica, post-emergence, 312 h; Application Rate 500 g/Ha; evaluated after 13 days; read-out: Control of weed species after post-emergence application, ELEIN (100=total damage to plant; 0=no damage to plant). Put shortly:
as §1

Assay [5] concerns Euphorbia heterophylla (EPHHL). As to conditions: Euphorbia heterophylla, post-emergence, 312 h; Application Rate 500 g/Ha; evaluated after 13 days; read-out: Control of weed species after post-emergence application, EPHHL (100=total damage to plant; 0=no damage to plant). The gist of the method:
as §1

Assay [6] relates to Ipomoea hederacea (IPOHE). The note with it: Ipomoea hederacea, post-emergence, 312 h; Application Rate 500 g/Ha; evaluated after 13 days; read-out: Control of weed species after post-emergence application, IPOHE (100=total damage to plant; 0=no damage to plant). Put shortly:
as §1

A further assay has as its system Lolium perenne (LOLPE). The note with it: Lolium perenne, post-emergence, 312 h; Application Rate 500 g/Ha; evaluated after 13 days; read-out: Control of weed species after post-emergence application, LOLPE (100=total damage to plant; 0=no damage to plant). Put shortly: as §1
The subject of a further assay is Setaia fabei (SETFA). The note with it: Setaria faberi, post-emergence, 312 h; Application Rate 500 g/Ha; evaluated after 13 days; read-out: Control of weed species after post-emergence application, SETFA (100=total damage to plant; 0=no damage to plant). Put shortly: as §1

The structures appear in SMILES notation.

For `CNC(=O)c1coc(-c2cc[n+](CCC(=O)O)nc2)n1` [Compound A127], the pest or weed control at 500 g/ha was found to be 100% in assay [1]; 100% in assay [2]; 90% in assay [3]; 80% in [4]; 70% in the assay with Eleusine indica (ELEIN); 70% in assay [5]. For the same compound, the values for the pest or weed control at 500 g/ha (in assay [6]; in the assay with Lolium perenne (LOLPE); in the assay on Setaia fabei (SETFA)) were 60%, 20% and 70%, respectively.
Regarding `COC(=O)CCC[n+]1ccc(-c2nc(C)co2)cn1` [Compound A128], the pest or weed control at 500 g/ha in assay [1] came to 90%; in assay [2], 20%; in assay [3], 90%; in assay [4], 80%; in the assay on Eleusine indica (ELEIN) it was 100%; in assay [5] it was 70%. For the same compound, the pest or weed control at 500 g/ha in assay [6] stood at 20%; with Lolium perenne (LOLPE), 60%; with Setaia fabei (SETFA) it was 90%.
Regarding `CNC(=O)c1oc(-c2cc[n+](CCC(=O)O)nc2)nc1C` [Compound A129], the pest or weed control at 500 g/ha in assay [1] was 100%; in [2], 70%; in assay [3] it was 70%; in [4], 60%; with Eleusine indica (ELEIN), 90%; in [5] it was 90%. Moreover, the figures for the pest or weed control at 500 g/ha (in assay [6]; in the assay on Lolium perenne (LOLPE); in the assay on Setaia fabei (SETFA)) were 80%, 60% and 100%, respectively.
`CCOC(=O)c1oc(-c2cc[n+](CCC(=O)O)nc2)nc1C` [Compound A130]: the pest or weed control at 500 g/ha in assay [1] amounted to 100%; in [2], 50%; in assay [3], 60%; in assay [4], 60%; with Eleusine indica (ELEIN), 80%; in assay [5] it was 100%. Also, the pest or weed control at 500 g/ha in assay [6] was found to be 50%; with Lolium perenne (LOLPE), 50%; in the assay with Setaia fabei (SETFA), 30%.
With `CCOC(=O)c1oc(-c2cc[n+](CCC(=O)OC)nc2)nc1C` [Compound A131], the pest or weed control at 500 g/ha in [1] worked out at 10%; in assay [2], 0%; in assay [3] it was 30%; in [4] it was 20%; in the assay on Eleusine indica (ELEIN) it was 10%; in [5] it was 10%. Further, the pest or weed control at 500 g/ha in assay [6] came to 10%; in the assay with Lolium perenne (LOLPE) it was 10%; in the assay with Setaia fabei (SETFA), 20%.
With `Cc1coc(-c2cc[n+](CC(=O)O)nc2)n1` [Compound A132], the pest or weed control at 500 g/ha was 90% in assay [1]; 70% in assay [2]; 90% in assay [3]; 90% in assay [4]; 90% with Eleusine indica (ELEIN); 70% in assay [5]. Also, the figures for the pest or weed control at 500 g/ha (in assay [6]; in the assay with Lolium perenne (LOLPE); in the assay on Setaia fabei (SETFA)) were 10%, 50% and 80%, respectively.
Turning to `COC(=O)C[n+]1ccc(-c2nc(C)co2)cn1` [Compound A133], the pest or weed control at 500 g/ha in [1] came to 0%; in assay [2], 0%; in assay [3], 20%; in [4] it was 10%; in the assay with Eleusine indica (ELEIN) it was 10%; in [5], 0%. For the same compound, the pest or weed control at 500 g/ha in assay [6] amounted to 10%; with Lolium perenne (LOLPE), 0%; with Setaia fabei (SETFA), 0%.
`Cc1coc(-c2cc[n+](CCOS(=O)(=O)[O-])nc2)n1` [Compound A134]: the pest or weed control at 500 g/ha in assay [1] is 90%; in [2], 30%; in assay [3], 60%; in assay [4], 70%; in the assay on Eleusine indica (ELEIN), 80%; in assay [5], 70%. Further, the pest or weed control at 500 g/ha was 50% in [6], 40% in the assay with Lolium perenne (LOLPE) and 70% in the assay with Setaia fabei (SETFA).
Turning to `Cc1coc(-c2cc[n+](CCCC(=O)O)nc2)n1` [Compound A135], the pest or weed control at 500 g/ha was determined as 90% in assay [1]; 20% in assay [2]; 90% in assay [3]; 90% in assay [4]; 80% in the assay on Eleusine indica (ELEIN); 90% in assay [5]. Besides, the pest or weed control at 500 g/ha in [6] turned out to be 10%; in the assay with Lolium perenne (LOLPE) it was 40%; with Setaia fabei (SETFA), 90%.
In the case of `Cc1coc(-c2cc[n+](CCCS(=O)(=O)[O-])nc2)n1` [Compound A136], the pest or weed control at 500 g/ha in [1] was 70%; in [2] it was 30%; in [3], 70%; in [4], 40%; in the assay with Eleusine indica (ELEIN) it was 60%; in [5], 70%. Moreover, the figures for the pest or weed control at 500 g/ha (in assay [6]; in the assay on Lolium perenne (LOLPE); with Setaia fabei (SETFA)) were 20%, 60% and 80%, respectively.
Turning to `CNC(=O)c1oc(-c2cc[n+](CCC(=O)OC)nc2)nc1C` [Compound A137], the pest or weed control at 500 g/ha is 20% in assay [1]; 10% in assay [2]; 50% in assay [3]; 40% in assay [4]; 30% with Eleusine indica (ELEIN); 20% in assay [5]. For the same compound, the pest or weed control at 500 g/ha in assay [6] was 10%; in the assay on Lolium perenne (LOLPE), 10%; in the assay with Setaia fabei (SETFA), 30%.
As for `O=C(O)CC[n+]1ccc(-c2cnns2)cn1` [Compound A138], the pest or weed control at 500 g/ha in [1] came out at 90%; in assay [2], 40%; in assay [3] it was 60%; in [4] it was 40%; with Eleusine indica (ELEIN), 70%; in assay [5], 100%. Also, the pest or weed control at 500 g/ha in [6] stood at 70%; with Lolium perenne (LOLPE) it was 0%; in the assay on Setaia fabei (SETFA) it was 30%.
`O=C(O)CC[n+]1ccc(-c2csnn2)cn1` [Compound A139, 3-[4-(thiadiazol-4-yl)pyridazin-1-ium-1-yl]propanoic acid 2,2,2-trifluoroacetate]: the pest or weed control at 500 g/ha amounted to 80% in [1]; 70% in assay [2]; 70% in [3]; 60% in [4]; 70% with Eleusine indica (ELEIN); 100% in assay [5]. The results for the pest or weed control at 500 g/ha (in assay [6]; in the assay on Lolium perenne (LOLPE); in the assay on Setaia fabei (SETFA)) were 60%, 10% and 60%, respectively.
